# Data from US12325696B2, “Indazole derivative, preparation method therefor, and pharmaceutical application thereof” (JIANGSU HENGRUI MEDICINE CO., LTD., priority 2019, dated 2025).
# Key:
# Assay type in all cases: cell-based
# [1] = system: MCF7 cell; assay: Inhibition of proliferation of MCF7 cell (CellTiter-Glo, 144 hours); settings: Homo sapiens; for IC50: MCF7, CellTiter-Glo, read-out: IC50 of the inhibitory effect on the proliferation of MCF7 cell; for Emax: MCF7 cell proliferation, read-out: Maximum inhibition
# Protocol: (§1) MCF7 cells (ATCC, HTB-22) were cultured in MEM (GE Healthcare, SH30024.01) complete medium containing 10% fetal bovine serum. On the first day of the experiment, MCF7 cells were seeded in a 96-well plate with the complete medium at a density of 3,000 cells/well (100 μl of cell suspension per well), and the plate was incubated in a cell incubator at 37° C. and 5% CO2 overnight. On the second day, the medium in each well was replaced with 135 μl of MEM incomplete medium containing 2% fetal bovine serum. 15 μl of test compound solution of different concentrations formulated with the incomplete medium was added to each well, wherein the final concentrations of the compound were nine concentration points obtained by a 4-fold gradient dilution starting from 100 nM. A blank control containing 0.5% DMSO was set. The plate was incubated in a cell incubator at 37° C. and 5% CO2 for 144 hours. On the eighth day, the 96-well plate was taken out, and 150 μl of CellTiter-Glo® Luminescent Cell Viability Assay (Promega, G7573) was added to each well. The plate was left to stand at room temperature for 10 minutes, and the luminescence signal values were measured using a multi-label microplate reader (PerkinElmer, VICTOR 3). The IC50 values of the inhibitory activity of the compounds were calculated based on the concentrations and luminescence signal values of the compounds using Graphpad Prism software.
# A graph of the chemiluminescence signal values versus the logarithmic concentrations of the compound was made using Graghpad Prism to obtain the IC50 values of the compound.
# [2] = system: estrogen receptor reporter gene; assay: Inhibition of estrogen receptor reporter gene activity (ERE-luc luciferase) in MCF7/ERE-luc cells; settings: Homo sapiens, 0.1 nM β-estradiol, 20 hours, read-out: IC50 of inhibitory activity on the activity of the estrogen receptor reporter gene
# Protocol: MCF7 cells MCF7/ERE-luc (ATCC, HTB-22) expressing the luciferase reporter gene ERE-luc (synthesized by GENEWIZ, Inc.) controlled by the estrogen receptor response element were cultured in MEM (GE Healthcare, SH30024.01) medium containing 10% fetal bovine serum and 500 µg/ml G418. On the first day of the experiment, MCF7/ERE-luc cells were seeded in a 96-well plate with incomplete MEM medium containing 10% fetal bovine serum treated with activated charcoal (BioSun, BS-0004-500) at a density of 30,000 cells/well (100 μl of cell suspension per well), and the plate was incubated in a cell incubator at 37° C. and 5% CO2 overnight. On the second day, 10 μl of β-estradiol (SIGMA, E2758-250MG) solution formulated with the above incomplete medium or test compound solution of different concentrations formulated with the above incomplete medium was added to each well, wherein the final concentration of β-estradiol was 0.1 nM, and the final concentrations of the compound were nine concentration points obtained by a 10-fold gradient dilution starting from 10 μM, a blank control containing 0.5% DMSO was set, and the plate was incubated in a cell incubator at 37° C. and 5% CO2 for 20 hours. On the third day, the 96-well plate was taken out, and 100 μl of ONE-Glo™ Luciferase Assay system (Promega, E6110) was added to each well to determine the activity of luciferase. The plate was left to stand at room temperature for 3 minutes until the cells were fully lysed, and the luminescence signal values were measured using a multi-label microplate reader (PerkinElmer, VICTOR 3). The IC50 values of the inhibitory activity of the compounds were calculated using Graphpad Prism software based on the concentrations and luminescence signal values of the compounds.
# The inhibitory effect of the compounds of the present disclosure on the activity of the estrogen receptor reporter gene was determined by the above test. A graph of the chemiluminescence signal values versus the logarithmic concentrations of the compound was made using Graghpad Prism.
# [3] = system: MCF7 D538G; assay: Inhibition of proliferation of MCF7 cell expressing ERα D538G mutant; settings: Homo sapiens, 144 hours; for Emax: read-out: Maximum inhibition
# Description: (§2) The mutants ERα Y537S and ERα D538G of human estrogen receptor α (ERαs) protein were obtained by site-directed mutagenesis using the cDNA of wild-type ESR1 gene (Accession No. NM000125) as a template according to double-primer PCR. The primer sequences used for mutagenesis are as follows (the nucleotides underlined are the sites of mutagenesis):
# (§3) The cDNA of mutant ESR1 was cloned into the target lentiviral vector pCDH-CMV-MCS-EF1-Puro (SBI, CD510B-1). The lentiviral plasmid with the mutant ESR1 gene sequence and the lentiviral packaging plasmids pVSV-G and pCMV-dR8.91 (SBI, LV500A-1) were transfected into HEK-293T cells (ATCC, CRL-3216) by Lipofectamine 3000 Transfection Reagent (ThermoFisher Scientific, Cat #L3000075). 48 hours after the transfection, the supernatant of the virus-containing DMEM high-glycemic medium (GE Healthcare, SH30243.01) containing 10% FBS was filtered, and ultracentrifuged to obtain the virus pellet. The virus pellet was resuspended in an appropriate amount of MEM medium (GE Healthcare, SH30024.01) containing 10% FBS, non-essential amino acids (SIGMA, M7145-100ML) and sodium pyruvate (SIGMA, S8636-100ML), and the resulting suspension was added to MCF7 cells (ATCC, HTB-22). Polybrene (SIGMA, H9268-5G) at a final concentration of 8 µg/ml was added, and the cells were incubated overnight. Two days after the transfection, […] puromycin (invitrogen, A11138-03) was added to the cell culture medium for resistance screening. After about two weeks, the MCF7 cell line capable of stably expressing ERαY537S and ERα D538G mutants was obtained.
# as §1, with “MCF7 cells expressing ERα mutant were cultured” for “MCF7 cells (ATCC, HTB-22) were cultured”, “the experiment, the cells were” for “the experiment, MCF7 cells were”, “control containing 0.500 DMSO was” for “control containing 0.5% DMSO was”, “C. and […] for” for “C. and 5% CO2 for”, “and 150 of CellTiter-Glo®” for “and 150 μl of CellTiter-Glo®”
# [4] = system: MCF7 ERαY537S; assay: Inhibition of proliferation of MCF7 cell expressing ERα Y537S mutant; settings: Homo sapiens, 144 hours; for Emax: read-out: Maximum inhibition
# Description: as §2, §3
# as §1, with “MCF7 cells expressing ERα mutant were cultured” for “MCF7 cells (ATCC, HTB-22) were cultured”, “the experiment, the cells were” for “the experiment, MCF7 cells were”, “control containing 0.500 DMSO was” for “control containing 0.5% DMSO was”, “C. and […] for” for “C. and 5% CO2 for”, “and 150 of CellTiter-Glo®” for “and 150 μl of CellTiter-Glo®”
IC50 [1],IC50 [2],IC50 [3],IC50 [4],SMILES,Emax [1],Emax [3],Emax [4]
2 nM,4 nM,9 nM,9 nM,"O=C(/C=C/CNC1(COc2ccc(/C(=C(/CC(F)(F)F)c3ccccc3)c3ccc4[nH]nc(F)c4c3)cn2)CC1)N1CCCCC1 [Example 3, (E)-1-(Piperidin-1-yl)-4-((1-(((5-((Z)-4,4,4-trifluoro-1-(3-fluoro-1H-indazol-5-yl)-2-phenylbut-1-en-1-yl)pyridin-2-yl)oxy)methyl)cyclopropyl)amino)but-2-en-1-one]",101%,96%,93%
1.5 nM,4 nM,10 nM,11 nM,"O=C(/C=C/CNC1(COc2ccc(/C(=C(/CC(F)(F)F)c3ccccc3)c3ccc4[nH]nc(F)c4c3)cn2)CC1)N1CCNCC1 [Example 4, (E)-1-(Piperazin-1-yl)-4-((1-(((5-((Z)-4,4,4-trifluoro-1-(3-fluoro-1H-indazol-5-yl)-2-phenylbut-1-en-1-yl)pyridin-2-yl)oxy)methyl)cyclopropyl)amino)but-2-en-1-one]",113%,105%,101%
0.1 nM,3 nM,0.2 nM,0.3 nM,"CN(C)C(=O)/C=C/CN(C)C1(COc2ccc(/C(=C(/CC(F)(F)F)c3ccccc3)c3ccc4[nH]nc(F)c4c3)cn2)CC1 [Example 5, (E)-N,N-Dimethyl-4-(methyl(1-(((5-((Z)-4,4,4-trifluoro-1-(3-fluoro-1H-indazol-5-yl)-2-phenylbut-1-en-1-yl)pyridin-2-yl)oxy)methyl)cyclopropyl)amino)but-2-enamide]",96%,98%,107%
0.15 nM,0.5 nM,0.5 nM,1 nM,"CCN(C/C=C/C(=O)N(C)C)C1(COc2ccc(/C(=C(/CC(F)(F)F)c3ccccc3)c3ccc4[nH]nc(F)c4c3)cn2)CC1 [Example 6, (E)-4-(Ethyl(1-(((5-((Z)-4,4,4-trifluoro-1-(3-fluoro-1H-indazol-5-yl)-2-phenylbut-1-en-1-yl)pyridin-2-yl)oxy)methyl)cyclopropyl)amino)-N,N-dimethylbut-2-enamide]",94%,98%,102%
2 nM,38 nM,12 nM,12 nM,"CN(C)C(=O)/C=C/CNC1(COc2ccc(/C(=C(/CC(F)(F)F)c3ccccc3)c3ccc4[nH]nc(F)c4c3)cn2)CCCC1 [Example 7, (E)-N,N-Dimethyl-4-((1-(((5-((Z)-4,4,4-trifluoro-1-(3-fluoro-1H-indazol-5-yl)-2-phenylbut-1-en-1-yl)pyridin-2-yl)oxy)methyl)cyclopentyl)amino)but-2-enamide]",102%,84%,88%
0.1 nM,2 nM,0.8 nM,2 nM,"CN(C)C(=O)/C=C/CN1CCC(Oc2ccc(/C(=C(/CC(F)(F)F)c3ccccc3)c3ccc4[nH]nc(F)c4c3)cn2)CC1 [Example 9, (E)-N,N-Dimethyl-4-(4-((5-((Z)-4,4,4-trifluoro-1-(3-fluoro-1H-indazol-5-yl)-2-phenylbut-1-en-1-yl)pyridin-2-yl)oxy)piperidin-1-yl)but-2-enamide]",110%,108%,94%
45 nM,–,–,–,"CNC(=O)c1ccc(/C(CC(F)(F)F)=C(\c2ccc(O[C@@H]3CCCN(C/C=C/C(=O)N(C)C)C3)nc2)c2ccc3[nH]nc(F)c3c2)cc1 [Example 21, 4-((Z)-1-(6-(((R)-1-((E)-4-(Dimethylamino)-4-oxobut-2-en-1-yl)piperidin-3-yl)oxy)pyridin-3-yl)-4,4,4-trifluoro-1-(3-fluoro-1H-indazol-5-yl)but-1-en-2-yl)-N-methylbenzamide]",90%,–,–
0.3 nM,7 nM,–,–,"CN(C)C(=O)/C=C/CN1CCC[C@H](Oc2ccc(/C(=C(/CC(F)(F)F)c3ccccc3)c3ccc4[nH]nc(F)c4c3)cn2)C1 [Example 27, (E)-N,N-Dimethyl-4-((S)-3-((5-((Z)-4,4,4-trifluoro-1-(3-fluoro-1H-indazol-5-yl)-2-phenylbut-1-en-1-yl)pyridin-2-yl)oxy)piperidin-1-yl)but-2-enamide]",86%,–,–
0.1 nM,4 nM,–,–,"C=CC(=O)N1CCC(Oc2ccc(/C(=C(/CC(F)(F)F)c3ccccc3)c3ccc4[nH]nc(F)c4c3)cn2)CC1 [Example 28, (Z)-1-(4-((5-(4,4,4-Trifluoro-1-(3-fluoro-1H-indazol-5-yl)-2-phenylbut-1-en-1-yl)pyridin-2-yl)oxy)piperidin-1-yl)prop-2-en-1-one]",90%,–,–
0.2 nM,3 nM,–,–,"CN(C)C(=O)/C=C/CN1CC[C@H](Oc2ccc(/C(=C(/CC(F)(F)F)c3ccccc3)c3ccc4[nH]nc(F)c4c3)cn2)C1 [Example 30, (E)-N,N-Dimethyl-4-((S)-3-((5-((Z)-4,4,4-trifluoro-1-(3-fluoro-1H-indazol-5-yl)-2-phenylbut-1-en-1-yl)pyridin-2-yl)oxy)pyrrolidin-1-yl)but-2-enamide]",93%,–,–
